Laboratory results as given in paper PMC11566078, “Bactericidal activities and biochemical features of 16 antimicrobial peptides against bovine-mastitis causative pathogens” (Veterinary Research, 2024).
Where two headings read alike, the source gives them in different places. Where no end group is shown, it is not given here.

Experiments:
Assay type in all cases: cell-based
[1] = test system: Streptococcus agalactiae ATCC 27956; assay: microbe, parasite or virus in culture
Description: (§1) The standard bacterial strains used for antimicrobial activity assays include Staphylococcus aureus ATCC (American Type Culture Collection, Manassas, VA, USA) 6538, Bacillus cereus ATCC 10876, Enterococcus faecalis ATCC 29212, Streptococcus […] 27956, Streptococcus dysgalactiae ATCC 27957, Streptococcus equi subsp. zooepidemicus ATCC 43079, Escherichia coli ATCC 25922, and Pseudomonas aeruginosa ATCC 27853. Most bacterial strains were cultured in LB medium except for E. faecalis and streptococci, which were cultivated in brain heart infusion (BHI) broth (BD Bioscience). […] Experiments were conducted in triplicate.

[2] = test system: Staphylococcus aureus ATCC 6538; assay: microbe, parasite or virus in culture
Description: as §1

[3] = test system: Streptococcus equi subsp. zooepidemicus ATCC 43079; assay: microbe, parasite or virus in culture
Description: as §1

[4] = test system: Pseudomonas aeruginosa ATCC 27853; assay: microbe, parasite or virus in culture
Description: as §1

[5] = test system: Streptococcus dysgalactiae ATCC 27957; assay: microbe, parasite or virus in culture
Description: as §1

[6] = test system: Enterococcus faecalis ATCC 29212; assay: microbe, parasite or virus in culture
Description: as §1

[7] = test system: Bacillus cereus ATCC 10876; assay: microbe, parasite or virus in culture
Description: as §1

[8] = test system: eight standard bacterial strains
Description: as §1

[9] = test system: Staphylococcus haemolyticus; assay: MIC against field isolate from milk with high SCC; conditions: field isolate from milk; WST colourimetric, 37 °C 6 h; triplicate
Description: (§2) All plates were cultivated aerobically.
(§3) Experiments were conducted in triplicate.

[10] = test system: Escherichia coli ATCC 25922; assay: microbe, parasite or virus in culture; conditions: MH broth, WST colourimetric, 1.5 × 10^5 cells/well, 37 °C 6 h + 2 h reagent, A450, triplicate
Description: as §1

[11] = test system: Staphylococcus epidermidis; assay: microbe, parasite or virus in culture; conditions: field isolate from milk; WST colourimetric, 37 °C 6 h; triplicate
Description: as §2, §3

[12] = test system: Staphylococcus chromogenes; assay: microbe, parasite or virus in culture; conditions: field isolate from milk; WST colourimetric, 37 °C 6 h; triplicate
Description: as §2, §3

Staphylococcus xylosus = assay: microbe, parasite or virus in culture; conditions: field isolate from milk; WST colourimetric, 37 °C 6 h; triplicate
Description: as §2, §3

[13] = only some Gram-negative and Gram-positive strains, range stated for the group of peptides
[14] = ATCC 27956, BHI broth, WST colourimetric, 37 °C 6 h, triplicate
[15] = ATCC 6538, MH broth, WST colourimetric, 37 °C 6 h, triplicate
[16] = ATCC 43079, BHI broth, WST colourimetric, 37 °C 6 h, triplicate
[17] = ATCC 27853, CAMHB, WST colourimetric, 37 °C 6 h, triplicate
[18] = ATCC 27957, BHI broth, WST colourimetric, 37 °C 6 h, triplicate
[19] = ATCC 29212, BHI broth, WST colourimetric, 37 °C 6 h, triplicate
[20] = ATCC 10876, MH broth, WST colourimetric, 37 °C 6 h, triplicate

| Substance | Minimal inhibitory concentration, Streptococcus agalactiae ([1]; ATCC 27956, 6 h) | Minimal inhibitory concentration, Staphylococcus aureus ([2]; ATCC 6538, 6 h) | Minimal inhibitory concentration, Streptococcus equi subsp. zooepidemicus ([3]; ATCC 43079, 6 h) | Minimal inhibitory concentration, Pseudomonas aeruginosa ([4]; ATCC 27853, 6 h) | Minimal inhibitory concentration, Streptococcus dysgalactiae ([5]; ATCC 27957, 6 h) | Minimal inhibitory concentration, Enterococcus faecalis ([6]; ATCC 29212, 6 h) | Minimal inhibitory concentration, Bacillus cereus ([7]; ATCC 10876, 6 h) | MICs, range over the strains against which active [8, 13] | further results |
| --- | --- | --- | --- | --- | --- | --- | --- | --- | --- |
| GGLRSLGRKILRAWKKYGPIIVPIIRIG [BMAP-28] | > 40 (12.6) μg/mL | 5 (1.6) μg/mL | > 40 (12.6) μg/mL | 9 (2.9) μg/mL | > 40 (12.6) μg/mL | 15 (4.8) μg/mL | 7 (2.2) μg/mL | 0.7 to 18.8 µM |  |
| GRFRRLRKKTRKRLKKIGKVLKWIPPIVGSIPLGCG [PMAP-36] | > 40 (9.6) μg/mL | 9 (2.2) μg/mL | > 40 (9.6) μg/mL | 8 (1.9) μg/mL | > 40 (9.6) μg/mL | > 40 (9.6) μg/mL | 28 (6.7) μg/mL |  |  |
| ILGRLRDLLRRGGRKIGQGLERIGQRIQGFFSNREPMEES [HA-CATH] | > 40 (8.6) μg/mL | 26 (5.6) μg/mL | > 40 (8.6) μg/mL | > 40 (8.6) μg/mL | > 40 (8.6) μg/mL | > 40 (8.6) μg/mL | 25 (5.4) μg/mL | 0.7 to 18.8 µM |  |
| KRRGSVTTRYQFLMIHLLRPKKLFA [EA-CATH1] | > 40 (13.1) μg/mL | 41 (13.4) μg/mL | > 40 (13.1) μg/mL | 19 (6.1) μg/mL | > 40 (13.1) μg/mL | 30 (9.8) μg/mL | > 40 (13.1) μg/mL | 0.7 to 18.8 µM |  |
| Lysostaphin: bacteriocin produced by Staphylococcus simulans, purchased (Sigma Aldrich) |  |  |  |  |  |  |  |  | Minimal inhibitory concentration, Staphylococcus haemolyticus [9]: 1 (37.3) μg/mL; Minimal inhibitory concentration, Streptococcus agalactiae [1, 14]: > 160 (29.7) μg/mL; Minimal inhibitory concentration, Escherichia coli [10]: > 160 (29.7) μg/mL; Minimal inhibitory concentration, Staphylococcus aureus [2, 15]: 1 µg/mL; Minimal inhibitory concentration, Streptococcus equi subsp. zooepidemicus [3, 16]: > 160 (29.7) μg/mL; Minimal inhibitory concentration, Pseudomonas aeruginosa [4, 17]: > 160 (29.7) μg/mL; Minimal inhibitory concentration, Streptococcus dysgalactiae [5, 18]: > 160 (29.7) μg/mL; Minimal inhibitory concentration, Enterococcus faecalis [6, 19]: > 160 (29.7) μg/mL; Minimal inhibitory concentration, Bacillus cereus [7, 20]: > 160 (29.7) μg/mL; Minimal inhibitory concentration, Staphylococcus epidermidis [11]: 1 (37.3) μg/mL; Minimal inhibitory concentration, Staphylococcus chromogenes [12]: 0.25 (9.3) μg/mL; Minimal inhibitory concentration, Staphylococcus xylosus (Staphylococcus xylosus): 0.5 (18.7) μg/mL |
| MRGGRLCYCRRRFCVCVGR (disulfide (positions not given here)) [PG-1, pig cathelicidin produced recombinantly with a GFP-scaffold system, CNBr cleaved, disulfide bonds installed] |  |  |  |  |  |  |  | 0.7 to 18.8 µM | Minimal inhibitory concentration, Streptococcus agalactiae [1, 14]: > 40 (17.5) μg/mL; Minimal inhibitory concentration, Escherichia coli [10]: 23 (10.0) μg/mL; Minimal inhibitory concentration, Streptococcus equi subsp. zooepidemicus [3, 16]: > 40 (17.5) μg/mL; Minimal inhibitory concentration, Pseudomonas aeruginosa [4, 17]: 20 (8.7) μg/mL; Minimal inhibitory concentration, Streptococcus dysgalactiae [5, 18]: 32 (14.0) μg/mL; Minimal inhibitory concentration, Enterococcus faecalis [6, 19]: > 40 (17.5) μg/mL; Minimal inhibitory concentration, Bacillus cereus [7, 20]: > 40 (17.5) μg/mL |
| Nisin |  |  |  |  |  |  |  |  | Minimal inhibitory concentration, Streptococcus agalactiae [1, 14]: 2 (0.60) μg/mL; Minimal inhibitory concentration, Escherichia coli [10]: > 64 (19.2) μg/mL; Minimal inhibitory concentration, Staphylococcus aureus [2, 15]: 2 (0.60) μg/mL; Minimal inhibitory concentration, Streptococcus equi subsp. zooepidemicus [3, 16]: 4 (1.2) μg/mL; Minimal inhibitory concentration, Pseudomonas aeruginosa [4, 17]: > 64 (19.2) μg/mL; Minimal inhibitory concentration, Streptococcus dysgalactiae [5, 18]: 4 (1.2) μg/mL; Minimal inhibitory concentration, Bacillus cereus [7, 20]: 4 (1.2) μg/mL; MICs, range over all Gram-positive strains in the panel ([8]; all Gram-positive strains of the standard panel): 2 to 16 µg/mL |
| RRRPRPPYLPRPRPPPFFPPRLPPRIPPGFPPRFP [PR-35] | > 40 (9.5) μg/mL | > 40 (9.5) μg/mL | > 40 (9.5) μg/mL | > 40 (9.5) μg/mL | > 40 (9.5) μg/mL | > 40 (9.5) μg/mL | > 40 (9.5) μg/mL |  |  |
| SKFFRKARKKLGKGLQKIKNVLRKY [ΔHg-CATH] | > 40 (13.2) μg/mL | > 40 (13.2) μg/mL | 15 (4.9) μg/mL | 5 (1.7) μg/mL | 15 (4.9) μg/mL | > 40 (13.2) μg/mL | > 40 (13.2) μg/mL |  | MICs, range over the strains against which active [8]: 0.7 to 18.8 µM |
| TRSRWRRFIRGAGRFARRYGWRIA [ΔPb-CATH4] | > 40 (13.1) μg/mL | 4 (1.3) μg/mL | 20 (6.6) μg/mL | 11 (3.5) μg/mL | > 40 (13.1) μg/mL | > 40 (13.1) μg/mL | > 40 (13.1) μg/mL |  | MICs, range over the strains against which active [8]: 0.7 to 18.8 µM |
| VKRTKRGARRGLTKVLKKIFGSIVKKAVSKGV [ΔModoCath1] |  | 11 (3.2) μg/mL |  | 2.9 µM |  | 2.9 µM |  | 0.7 to 18.8 µM |  |
| VRRSKRGIKVPSFVKKVLKDVVSESIS [ΔModoCath6] | > 40 (13.2) μg/mL | > 40 (13.2) μg/mL | > 40 (13.2) μg/mL | > 40 (13.2) μg/mL | > 40 (13.2) μg/mL | > 40 (13.2) μg/mL | > 40 (13.2) μg/mL |  |  |
| WYQLIRTFGNLIHQKYRKLLEAYRKLRD [ΔModoCath5] | > 40 (11.0) μg/mL | 6 (1.7) μg/mL | > 40 (11.0) μg/mL | > 40 (11.0) μg/mL | > 40 (11.0) μg/mL | 10 (2.8) μg/mL | 26 (7.3) μg/mL |  |  |
